Consider 21 compounds from PubChem BioAssay AID330 (DTP/NCI, 2004).

Values joined by “and” are separate entries in the source; they are usually repeats but may differ in a detail not shown here. Identical values can stand only once. Toxic doses and inconclusive results are not listed. Square brackets hold non-standard residues; d marks the D form. Peptide text beside a SMILES is read from it. * marks the point of attachment. Cbz = O=C(OCc1ccccc1)*; Nva = CCC[CH](N)C(=O)O

The subject of the assay is P388 leukemia ip, CD2F1 mice, survival T/C. The assay can be described thus: NCI In Vivo Anticancer Drug Screen. Data for tumor model P388 Leukemia (intraperitoneal) in CD2F1 (CDF1) mice. The note with it: endpoint: median survival time, higher = longer survival. An outline of the steps: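 Mice carrying the transplanted tumor received test compound or vehicle. Survival was recorded in each group, and the value is the treated-group measurement divided by that of the vehicle-treated control group.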

Setting [1] is: dose: 50.0 mg/kg/injection, schedule: Q01DX009 (ip), vehicle: saline.
The mark [2] stands for this setting: dose: 100.0 mg/kg/injection, schedule: Q01DX009 (ip), vehicle: saline.
Setting [3] is: dose: 200.0 mg/kg/injection, schedule: Q01DX009 (ip), vehicle: saline.
The mark [4] stands for this setting: dose: 100.0 mg/kg/injection, schedule: Q04DX003 (ip), vehicle: saline.
Setting [5] is: dose: 200.0 mg/kg/injection, schedule: Q04DX003 (ip), vehicle: saline.
Setting [6] is: dose: 60.0 mg/kg/injection, schedule: Q01DX005 (ip), vehicle: saline with Tween-80.
Setting [7] is: dose: 120.0 mg/kg/injection, schedule: Q01DX005 (ip), vehicle: saline with Tween-80.
The mark [8] stands for this setting: dose: 240.0 mg/kg/injection, schedule: Q01DX005 (ip), vehicle: saline with Tween-80.
Setting [9] is: dose: 50.0 mg/kg/injection, schedule: Q01DX005 (ip), vehicle: saline with Tween-80.
Where [10] appears, read: dose: 100.0 mg/kg/injection, schedule: Q01DX005 (ip), vehicle: saline with Tween-80.
Setting [11] is: dose: 200.0 mg/kg/injection, schedule: Q01DX005 (ip), vehicle: saline with Tween-80.
[12] abbreviates: dose: 12.5 mg/kg/injection, schedule: Q01DX009 (ip), vehicle: distilled water + Tween-80.
Where [13] appears, read: dose: 25.0 mg/kg/injection, schedule: Q01DX009 (ip), vehicle: distilled water + Tween-80.
Where [14] appears, read: dose: 100.0 mg/kg/injection, schedule: Q01DX009 (ip), vehicle: distilled water + Tween-80.
The mark [15] stands for this setting: dose: 100.0 mg/kg/injection, schedule: Q01DX001 (ip), vehicle: saline with Tween-80.
Where [16] appears, read: dose: 200.0 mg/kg/injection, schedule: Q01DX001 (ip), vehicle: saline with Tween-80.
Where [17] appears, read: dose: 400.0 mg/kg/injection, schedule: Q01DX001 (ip), vehicle: saline with Tween-80.
Setting [18] is: dose: 50.0 mg/kg/injection, schedule: Q01DX005 (ip), vehicle: Klucel (hydroxypropylcellulose) (HPC).
Where [19] appears, read: dose: 100.0 mg/kg/injection, schedule: Q01DX005 (ip), vehicle: Klucel (hydroxypropylcellulose) (HPC).
Where [20] appears, read: dose: 200.0 mg/kg/injection, schedule: Q01DX005 (ip), vehicle: Klucel (hydroxypropylcellulose) (HPC).

Regarding `CCOC(=O)c1ccc(NC(=O)N2CCCCC2C)cc1` (stereo not given), the T/C is, setting by setting: (dose: 60.0 mg/kg/injection, schedule: Q01DX005 (ip), vehicle: Klucel (hydroxypropylcellulose) (HPC)) 104 % of control; (dose: 120.0 mg/kg/injection, schedule: Q01DX005 (ip), vehicle: Klucel (hydroxypropylcellulose) (HPC)) 89 % of control; (dose: 240.0 mg/kg/injection, schedule: Q01DX005 (ip), vehicle: Klucel (hydroxypropylcellulose) (HPC)) 97 % of control.
On to `CC(C)CSc1nc2ccc(N=Cc3ccccc3O)cc2s1`, for which the T/C (dose: 50.0 mg/kg/injection, schedule: Q01DX009 (ip), vehicle: Klucel (hydroxypropylcellulose) (HPC)) was 94 % of control; the T/C (dose: 100.0 mg/kg/injection, schedule: Q01DX009 (ip), vehicle: Klucel (hydroxypropylcellulose) (HPC)) was 92 % of control; the T/C (dose: 200.0 mg/kg/injection, schedule: Q01DX009 (ip), vehicle: Klucel (hydroxypropylcellulose) (HPC)) was 89 % of control.
In the case of `CC(=O)NCCN=Cc1ccccc1`, the T/C (dose: 100.0 mg/kg/injection, schedule: Q04DX003 (ip), vehicle: saline with Tween-80) is 100 % of control; the T/C (dose: 200.0 mg/kg/injection, schedule: Q04DX003 (ip), vehicle: saline with Tween-80) was 100 % of control; the T/C (dose: 400.0 mg/kg/injection, schedule: Q04DX003 (ip), vehicle: saline with Tween-80) was 100 % of control.
Take `CCc1cccc(CC)c1N1C(=O)C2=C(SCCCS2)C1=O`: the T/C was 98 % of control under setting [1], 102 % of control under setting [2] and 107 % of control under setting [3].
As to `S=C1NCCCN1`, the T/C by setting is: (dose: 25.0 mg/kg/injection, schedule: Q04DX003 (ip), vehicle: saline) 99 % of control; (dose: 50.0 mg/kg/injection, schedule: Q04DX003 (ip), vehicle: saline) 104 % of control; under setting [4], 100 % of control; under setting [5], 100 % of control.
Turning to `COC(=O)NC1C(=O)OC2C1CC1OC12` (stereo not given), the T/C by setting is: under setting [6], 101 % of control; under setting [7], 100 % of control; under setting [8], 101 % of control.
In the case of `COc1ccc(CCNC(=O)c2ccc(CSc3ccc(Cl)cc3)o2)cc1OC`, the T/C is, setting by setting: under setting [9], 105 % of control; under setting [10], 100 % of control; under setting [11], 93 % of control.
With `Nn1cnc2c(nnn2Cc2ccccc2)c1=O`, the T/C is 104 % of control (dose: 100.0 mg/kg/injection, schedule: Q04DX002 (ip), vehicle: saline with Tween-80) and 100 % of control (dose: 200.0 mg/kg/injection, schedule: Q04DX002 (ip), vehicle: saline with Tween-80).
Turning to `c1ccc(-c2c[s+]c(-c3ccccc3)s2)cc1`, the T/C is, setting by setting: (dose: 6.25 mg/kg/injection, schedule: Q01DX009 (ip), vehicle: distilled water + Tween-80) 117 % of control; under setting [12], 100 % of control; under setting [13], 90 % of control; (dose: 50.0 mg/kg/injection, schedule: Q01DX009 (ip), vehicle: distilled water + Tween-80) 99 % of control; under setting [14], 97 % of control.
For `NC(N)=NS(=O)(=O)c1ccc(N=NC2=C(O)C(c3ccccc3)N(c3ccccc3)C2=O)cc1` (stereo not given), the T/C runs as follows: under setting [15], 102 % of control; under setting [16], 102 % of control; under setting [17], 90 % of control.
As to `O=C1OC(OCC#CCOC2OC(=O)C(Cl)=C2Cl)C(Cl)=C1Cl` (stereo not given), the T/C is 112 % of control (dose: 15.0 mg/kg/injection, schedule: Q01DX005 (ip), vehicle: saline with Tween-80); 105 % of control (dose: 30.0 mg/kg/injection, schedule: Q01DX005 (ip), vehicle: saline with Tween-80); 115 % of control and 93 % of control under setting [6].
As for `COc1cc(OC)c(C(=O)CCN(C)C)cc1OC`, the T/C by setting is: (dose: 60.0 mg/kg/injection, schedule: Q01DX005 (ip), vehicle: saline) 109 % of control; (dose: 120.0 mg/kg/injection, schedule: Q01DX005 (ip), vehicle: saline) 116 % of control; (dose: 240.0 mg/kg/injection, schedule: Q01DX005 (ip), vehicle: saline) 114 % of control.
For the compound `CCOC(=O)C1CC(C)CC1=O` (stereo not given), the T/C was 96 % of control under setting [1], 98 % of control under setting [2] and 102 % of control under setting [3].
With `COc1ccc(NS(=O)(=O)c2ccc(N=Cc3c4ccccc4nc4ccccc34)cc2)nn1`, the T/C was 96 % of control (dose: 12.5 mg/kg/injection, schedule: Q04DX002 (ip), vehicle: Klucel (hydroxypropylcellulose) (HPC)); 96 % of control (dose: 25.0 mg/kg/injection, schedule: Q04DX002 (ip), vehicle: Klucel (hydroxypropylcellulose) (HPC)); 89 % of control (dose: 50.0 mg/kg/injection, schedule: Q04DX002 (ip), vehicle: Klucel (hydroxypropylcellulose) (HPC)); 96 % of control (dose: 100.0 mg/kg/injection, schedule: Q04DX002 (ip), vehicle: Klucel (hydroxypropylcellulose) (HPC)); 89 % of control (dose: 200.0 mg/kg/injection, schedule: Q04DX002 (ip), vehicle: Klucel (hydroxypropylcellulose) (HPC)); 89 % of control (dose: 400.0 mg/kg/injection, schedule: Q04DX002 (ip), vehicle: Klucel (hydroxypropylcellulose) (HPC)).
With `CCCC(NC(=O)OCc1ccccc1)C(=O)NC(CC(C)C)C(=O)O` (stereo not given) (Cbz-[Nva]-Leu-OH; configuration not given here), the T/C reads like this: under setting [18], 112 % of control; under setting [19], 100 % of control; under setting [20], 106 % of control.
As for `CC(O)C(N=C1N=CNC2=NC=NC12)C(=O)O` (stereo not given), the T/C reads like this: under setting [9], 100 % of control; under setting [10], 96 % of control; under setting [11], 95 % of control.
`CNC(=O)OCc1c(COC(=O)NC)c(-c2ccccc2)n(-c2ccc(Cl)c(Cl)c2)c1C`: the T/C is 117 % of control under setting [12]; 160 % of control under setting [13]; 155 % of control and 165 % of control under setting [14]; 155 % of control and 184 % of control (dose: 200.0 mg/kg/injection, schedule: Q01DX009 (ip), vehicle: distilled water + Tween-80); 87 % of control (dose: 400.0 mg/kg/injection, schedule: Q01DX009 (ip), vehicle: distilled water + Tween-80).
In the case of `CCC(=O)Nc1nnc(SCCCCCCCCCCCCSc2nnc(NC(=O)CC)s2)s1`, the T/C reads like this: under setting [18], 96 % of control; under setting [19], 88 % of control; under setting [20], 87 % of control.
Turning to `COc1nc(NC2OC(COC(C)=O)C(OC(C)=O)C(OC(C)=O)C2OC(C)=O)c(N=CC=Nc2c(NC3OC(COC(C)=O)C(OC(C)=O)C(OC(C)=O)C3OC(C)=O)nc(OC)[nH]c2=O)c(=O)[nH]1` (stereo not given), the T/C by setting is: under setting [6], 89 % of control; under setting [7], 90 % of control; under setting [8], 95 % of control.
Take `CC1(C)CN2C(c3ccccc3)=NN(c3ccccc3)C2(C)C1` (stereo not given): the T/C is 98 % of control under setting [15], 99 % of control under setting [16] and 100 % of control under setting [17].
Consider `CCOC(=O)C(NC(C)=O)(C(=O)OCC)c1ccc(N)cn1`, for which the T/C is, setting by setting: under setting [4], 99 % of control; under setting [5], 103 % of control; (dose: 400.0 mg/kg/injection, schedule: Q04DX003 (ip), vehicle: saline) 98 % of control.
